We go through 59 substances from US6355619B1, “Peptide tumor cell growth inhibitors” (Board of Regents, The University of Texas System, priority 1996, dated 2002).

Where no end group is shown, it is not given here. [ ]: non-standard residue; d: D form.

Assay [1] concerns IL-8 receptors on neutrophils. Description: Inhibition of 125I-labeled IL-8 binding to human neutrophils. The note with it: for % Binding Inhibition (IL-8 binding to neutrophils): synthetic peptides, standard assay (Table 6). The method, then:
Therefore, in pursuing this aim, the present inventors assayed various other peptide compositions for IL-8 inhibitory activity by screening a library of 400 groups of hexapeptides. In these screening assays, ^125I-labeled interleukin-8 (10^−12 M) was mixed with 100 μM peptide, then added to neutrophils and incubated at 4° C. for 90 min. The bound radioactivity was separated from unbound by centrifugation through a dense cushion of a mixture of paraffin and silicon oils and the ^125I bound to neutrophils was counted in a gamma radiation spectrometer, allowing the results to be expressed as the percent of IL-8 binding which was inhibited.
The use of human subjects for acquisition of neutrophils was approved by the Institutional Review Board for human experimentation. For the preparation of neutrophils, human blood was anticoagulated with heparin for enzyme release studies and with 0.33% sodium citrate for other studies. For chemotactic and enzyme release studies neutrophils were separated by dextran sedimentation and erythrocyte lysis by the method of Boyum (Kohler and Milstein, 1975). For binding studies and cytotoxic studies, the neutrophils were further purified in gradients of Percoll (Pharmacia Fine Chemicals, Piscataway, N.J.) to a purity of 90-93% (Kohler and Milstein, 1975).
Recombinant human IL-8 (72 amino acids; Pepro Tech Inc., Rocky Hill, N.J.) was radioactively labeled with ^125I by the chloramine T method of Hunter and Greenwood (Hunter and Greenwood, 1962). Binding studies were performed according to Besemer et al. (1989), as follows: Neutrophils in phosphate buffered saline pH 7.4 (PBS) containing 0.1% bovine serum albumin (BSA) were incubated with labeled ligand in the presence or absence of the peptide being tested for 90 min at 4° C. to reach equilibrium and then centrifuged at 12,000×g for 3 min in Beckman B microfuge (Beckman Instruments, Fullerton, Calif.), through a cushion consisting of a mixture of paraffin oil Fisher Scientific, Fair Lawn, N.J.) and silicon oil (Serva Co., N.Y., N.Y.). The pellet and supernatant were then counted in a gamma radiation spectrometer. The non-specific binding was estimated to measure the binding in the presence of 100-fold excess of non-labeled ligand. The binding constants were calculated using the computer programs Lundon I and Lundon II.
In these studies, a screening for inhibition was carried out at 100 μM concentration of the peptide being tested, with a 10^−12 M concentration of IL-8. In the first series of studies, twenty peptides were synthesized with the carboxyl-terminal residue of RRWWCX (SEQ ID NO:23) being changed to each of the standard protein amino acids in turn.

For assay [2], the target named is IL-8 receptors on human neutrophils (human). In words: inhibition of 125I-IL-8 (10^-12 M) binding to human neutrophils, peptide 100 µM.
[3] abbreviates: first set of heptamer studies, D-amino acid RRWWCRX series, methodology of Example I.
Where [4] appears, read: 100 μM peptide, 10^−12 M IL-8, hexamer RRWWCX series, first screen.

In the case of “Ac-KELRCQ-NH2 [IL-8 homologue peptide, reference compound]”, in assay [1], the “ability to inhibit IL-8 binding to neutrophils” value (“ability to inhibit IL-8 binding” below) is “None of these peptides had the ability to inhibit IL-8 binding” and the “% Binding Inhibition (IL-8 binding to neutrophils)” value (“% Binding Inhibition” for short) was −0.4 ± 11.8%.
As for “Arg Arg Trp Trp Cys Arg Ala ([dR][dR][dW][dW][dC][dR][dA]) [rrwwcra]”, the “% INHIB. (IL-8 binding to neutrophils)” value in assay [1] (setting [3]) stood at 95.3%.
With “Arg Arg Trp Trp Cys Arg Arg ([dR][dR][dW][dW][dC][dR][dR]) [rrwwcrr]”, the “% INHIB. (IL-8 binding to neutrophils)” value in assay [1] (setting [3]) stood at 102.8%.
As for “Arg Arg Trp Trp Cys Arg Asn ([dR][dR][dW][dW][dC][dR][dN]) [rrwwcrn]”, the “% INHIB. (IL-8 binding to neutrophils)” value in assay [1] (setting [3]) is listed as 110.8%.
Turning to “Arg Arg Trp Trp Cys Arg Asp ([dR][dR][dW][dW][dC][dR][dD]) [rrwwcrd]”, the “% INHIB. (IL-8 binding to neutrophils)” value in assay [1] (setting [3]) worked out at 107.0%.
Take “Arg Arg Trp Trp Cys Arg Cys (Ac-[dR][dR][dW][dW][dC][dR][dC]-NH2; not fully specified; printed as Arg Arg Trp Trp Cys Arg Cys; cysteine pairing not given here) [rrwwcrc]”: in assay [1], the “potency as inhibitor relative to Ac-rrwwcr-NH2” value is “almost four times as potent”. In addition, in assay [1] (10 μM peptide (FIG. 9)), the “inhibition of IL-8 binding to neutrophils” value came to 80%. For the same substance, the “% INHIB. (IL-8 binding to neutrophils)” value in assay [1] (setting [3]) was determined as 107.7%. Also, in assay [1] (lower peptide concentration (FIG. 9)), the “more effective than the next best heptamer peptide” value was ~56%.
Turning to “Arg Arg Trp Trp Cys Arg Gln ([dR][dR][dW][dW][dC][dR][dQ]) [rrwwcrq]”, the “% INHIB. (IL-8 binding to neutrophils)” value in assay [1] (setting [3]) is recorded as 89.2%.
Turning to “Arg Arg Trp Trp Cys Arg Glu ([dR][dR][dW][dW][dC][dR][dE]) [rrwwcre]”, in assay [1] (setting [3]), the “% INHIB. (IL-8 binding to neutrophils)” value is reported as 99.1%.
As for “Arg Arg Trp Trp Cys Arg Gly ([dR][dR][dW][dW][dC][dR]G) [rrwwcrg]”, the “% INHIB. (IL-8 binding to neutrophils)” value in assay [1] (setting [3]) came to 108.0%.
In the case of “Arg Arg Trp Trp Cys Arg His ([dR][dR][dW][dW][dC][dR][dH]) [rrwwcrh]”, in assay [1] (setting [3]), the “% INHIB. (IL-8 binding to neutrophils)” value turned out to be 107.0%.
Take “Arg Arg Trp Trp Cys Arg Ile ([dR][dR][dW][dW][dC][dR][dI]) [rrwwcri]”: in assay [1] (setting [3]), the “% INHIB. (IL-8 binding to neutrophils)” value came to 93.9%.
Take “Arg Arg Trp Trp Cys Arg Leu ([dR][dR][dW][dW][dC][dR][dL]) [rrwwcrl]”: the “% INHIB. (IL-8 binding to neutrophils)” value in assay [1] (setting [3]) was found to be 99.1%.
Turning to “Arg Arg Trp Trp Cys Arg Lys ([dR][dR][dW][dW][dC][dR][dK]) [rrwwcrk]”, the “% INHIB. (IL-8 binding to neutrophils)” value in assay [1] (setting [3]) came out at 113.1%.
For “Arg Arg Trp Trp Cys Arg Met ([dR][dR][dW][dW][dC][dR][dM]) [rrwwcrm]”, the “% INHIB. (IL-8 binding to neutrophils)” value in assay [1] (setting [3]) is listed as 96.2%.
With “Arg Arg Trp Trp Cys Arg Phe ([dR][dR][dW][dW][dC][dR][dF]) [rrwwcrf]”, the “% INHIB. (IL-8 binding to neutrophils)” value in assay [1] (setting [3]) was determined as 105.6%.
With “Arg Arg Trp Trp Cys Arg Pro ([dR][dR][dW][dW][dC][dR][dP]) [rrwwcrp]”, the “% INHIB. (IL-8 binding to neutrophils)” value in assay [1] (setting [3]) is 87.3%.
As to “Arg Arg Trp Trp Cys Arg Ser ([dR][dR][dW][dW][dC][dR][dS]) [rrwwcrs]”, the “% INHIB. (IL-8 binding to neutrophils)” value in assay [1] (setting [3]) was 70.4%.
As for “Arg Arg Trp Trp Cys Arg Thr ([dR][dR][dW][dW][dC][dR][dT]) [rrwwcrt]”, the “% INHIB. (IL-8 binding to neutrophils)” value in assay [1] (setting [3]) worked out at 56.3%.
Take “Arg Arg Trp Trp Cys Arg Trp ([dR][dR][dW][dW][dC][dR][dW]) [rrwwcrw]”: the “% INHIB. (IL-8 binding to neutrophils)” value in assay [1] (setting [3]) was found to be 106.3%.
Still for that read-out and setting: in the case of “Arg Arg Trp Trp Cys Arg Tyr ([dR][dR][dW][dW][dC][dR][dY]) [rrwwcry]” it was 85.4%.
On to “Arg Arg Trp Trp Cys Arg Val ([dR][dR][dW][dW][dC][dR][dV]) [rrwwcrv]”, for which the “% INHIB. (IL-8 binding to neutrophils)” value in assay [1] (setting [3]) was 89.2%.
As to “Arg Arg Trp Trp Cys Asp (Ac-RRWWCD; also: D-amino acids, positions not given here)”, the “ability to inhibit IL-8 binding” value in assay [1] is listed as “only minimally active”. The “% INHIB. (IL-8 binding to neutrophils)” value in assay [1] (setting [4]) is 11.8%.
For the substance “ELRCQCIKTY [IL-8 homologue including the C-X-C motif, reference compound]”, in assay [1], the “ability to inhibit IL-8 binding” value is reported as “None of these peptides had the ability to inhibit IL-8 binding” and the “% Binding Inhibition” value is on record as 7.6 ± 2.1%.
The corresponding values for ELRMQMIKTY [reference compound] are “None of these peptides had the ability to inhibit IL-8 binding” and −6.9 ± 3.0%.
With ELRSQSIKTY [reference compound], in assay [1], the “ability to inhibit IL-8 binding” value is “None of these peptides had the ability to inhibit IL-8 binding” and the “% Binding Inhibition” value worked out at 5.8 ± 3.9%.
Take “GWRRWWCDAVLY [segment of cell surface glycoprotein CD11c precursor, human leukocyte adhesion receptor p150,95 alpha chain, reference compound]”: in assay [1], the “ability to inhibit IL-8 binding” value is given as “lack of activity” and the “% Binding Inhibition” value is given as −12.9 ± 2.9%.
RRWWCA: the “% INHIB. (IL-8 binding to neutrophils)” value in assay [1] (setting [4]) was determined as 51.9%.
As to RRWWCA (peptide), the % INHIB. in assay [2] came out at 51.9%.
Consider “RRWWCC (cysteine pairing not given here)”, for which the “% INHIB. (IL-8 binding to neutrophils)” value in assay [1] (setting [4]) was 75.1%.
In the case of RRWWCC (peptide), the % INHIB. in assay [2] was determined as 75.1%.
As to RRWWCD (peptide), in assay [2], the % INHIB. came to 11.8%.
On to RRWWCE, for which the “% INHIB. (IL-8 binding to neutrophils)” value in assay [1] (setting [4]) amounted to 17.1%.
For RRWWCE (peptide), the % INHIB. in assay [2] stood at 17.1%.
For RRWWCF, the “% INHIB. (IL-8 binding to neutrophils)” value in assay [1] (setting [4]) worked out at 80.2%.
As for RRWWCF (peptide), the % INHIB. in assay [2] stood at 80.2%.
For the substance RRWWCG, in assay [1] (setting [4]), the “% INHIB. (IL-8 binding to neutrophils)” value is 86.8%.
Turning to RRWWCG (peptide), the % INHIB. in assay [2] came out at 86.8%.
For RRWWCH, the “% INHIB. (IL-8 binding to neutrophils)” value in assay [1] (setting [4]) amounted to 87.9%.
As for RRWWCH (peptide), the % INHIB. in assay [2] is 87.9%.
RRWWCI: the “% INHIB. (IL-8 binding to neutrophils)” value in assay [1] (setting [4]) turned out to be 45.8%.
For RRWWCI (peptide), the % INHIB. in assay [2] is 45.8%.
Regarding RRWWCK, the “% INHIB. (IL-8 binding to neutrophils)” value in assay [1] (setting [4]) was 110.3%.
As for RRWWCK (peptide), the % INHIB. in assay [2] amounted to 110%.
Take RRWWCL: the “% INHIB. (IL-8 binding to neutrophils)” value in assay [1] (setting [4]) is 86.9%.
In the case of RRWWCL (peptide), the % INHIB. in assay [2] is 86.9%.
Regarding RRWWCM, the “% INHIB. (IL-8 binding to neutrophils)” value in assay [1] (setting [4]) is 69.0%.
Consider RRWWCM (peptide), for which the % INHIB. in assay [2] was 69%.
RRWWCN: the “IL-8 binding inhibition at lower peptide concentration (FIG. 1)” value in assay [1] (20 μM peptide) is reported as “did indeed exhibit certain inhibitory properties”. In assay [1] (setting [4]), the “% INHIB. (IL-8 binding to neutrophils)” value is on record as −12.0%.
In the case of RRWWCN (peptide), the % INHIB. in assay [2] was -12%.
With RRWWCP, the “% INHIB. (IL-8 binding to neutrophils)” value in assay [1] (setting [4]) came to 88.3%.
As to RRWWCP (peptide), in assay [2], the % INHIB. stood at 88.3%.
As for RRWWCQ, the “% INHIB. (IL-8 binding to neutrophils)” value in assay [1] (setting [4]) is recorded as 19.2%.
As to RRWWCQ (peptide), in assay [2], the % INHIB. is 19.2%.
Take RRWWCS: the “% INHIB. (IL-8 binding to neutrophils)” value in assay [1] (setting [4]) was determined as 79.3%.
With RRWWCS (peptide), the % INHIB. in assay [2] worked out at 79.3%.
On to RRWWCT, for which the “% INHIB. (IL-8 binding to neutrophils)” value in assay [1] (setting [4]) turned out to be 88.4%.
For RRWWCV, the “% INHIB. (IL-8 binding to neutrophils)” value in assay [1] (setting [4]) is 81.1%.
Still for that read-out and setting: in the case of RRWWCW it was 66.4%.
Consider RRWWCY, for which the “% INHIB. (IL-8 binding to neutrophils)” value in assay [1] (setting [4]) worked out at 77.9%.
